Measurements from PubChem BioAssay AID720570 (Broad Institute, 2013).
“And” between values parts separate entries of the source, which are not always exact repeats. Equal values may be shown once. The source made the active and inactive calls.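 Rule for the calls: active = cell-killing curve crosses a set limit at a concentration no more than twice the top valid dose; inconclusive = flat curve with a 30 to 70% loss, or a poor fit; inactive = signal rising instead of falling, and the rest.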

Tested on: TC71 Ewing sarcoma viability, CellTiter-Glo ATP, 72 h
Experiment: TC71 Ewing sarcoma cell killing, confirmation, luminescence, cherry-picked samples, retest (AID 720570)

Compound | AC35
CC(=O)OC1CC(OC2C(O)CC(OC3C(O)CC(OC4CCC5(C)C(CCC6C5CC(O)C5(C)C(C7=CC(=O)OC7)CCC65O)C4)OC3C)OC2C)OC(C)C1OC1OC(CO)C(O)C(O)C1O (stereo unspecified) | 0.589 µM
CCN1/C(=C/C(C)=C/c2sc3ccccc3[n+]2CC)Sc2ccccc21 | 0.951 µM
COc1cccc(CN2CCC2(C)C(=O)Nc2cccc3cccnc23)c1F (stereo unspecified) | 14.5 µM
C[C@@H]1CCCCO[C@H](CN(C)Cc2ccc(C(=O)Nc3ccccc3N)cc2)[C@@H](C)CN([C@H](C)CO)C(=O)c2cc(NS(=O)(=O)c3ccc(F)cc3)ccc2O1 | 12.9 µM
C/C(=N\NC(=O)c1n[nH]c2c1CCC2)c1cccs1 | 20.2 µM
O=C(O)c1ccc(N/N=C/c2ccc3c(c2)OCO3)cc1 | 9.45 µM
CCCN1C/C(=C/c2ccc3c(c2)OCO3)C(=O)/C(=C/c2ccc3c(c2)OCO3)C1 | 13.6 µM
COc1cc2c(OC(C)=O)c3c(c(-c4ccc5c(c4)OCO5)c2cc1OC)C(=O)OC3 | 3.57 µM
COc1ccc(-c2nc3c(s2)CCc2onc(-c4ccc(OC)cc4)c2-3)cc1 | 13.3 µM
Nc1nc(=S)c2ncn([C@@H]3O[C@H](CO)[C@@H](O)[C@H]3O)c2[nH]1 | 1.74 µM
C[C@H](CO)N1C[C@H](C)[C@@H](CN(C)Cc2ccc(Oc3ccccc3)cc2)Oc2ccc(NS(=O)(=O)c3ccc(Cl)cc3)cc2CC1=O | 13 µM
COc1ccc(CCCNC(=O)C2Cc3c(-c4ccc5c(c4)OCO5)ccnc3O2)cc1 (stereo unspecified) | 3.47 µM
Cc1cccc(CN2C(=O)/C(=C\c3ccc(C(=O)NCCCN4CCN(C)CC4)cc3)Oc3ccccc32)c1 | 12.9 µM
COC1C(O)C(C)OC(OC2C(Oc3cccc4c(O)c5c(=O)oc6ccc(C)c7c(=O)oc(c34)c5c67)OC(C)C(O)C2O)C1O (stereo unspecified) | 5.5 µM
C[C@@H]1CN([C@@H](C)CO)C(=O)c2cccc(NS(=O)(=O)c3ccccc3)c2O[C@@H]1CN(C)Cc1ccc(C(=O)Nc2ccccc2N)cc1 | 11.9 µM
COc1ccc(Cn2cc3c(-c4ccc(F)cc4)nnc-3c3cc(OC)c(OC)cc32)cc1 | 13.4 µM
Cc1ccc(/C=N/Nc2ccc3ccccc3n2)o1 | 18.4 µM
S=c1[nH]nc(-c2cc(-c3ccccc3)n[nH]2)n1/N=C/C(Br)=C/c1ccccc1 | 13.2 µM
CC12CCC(O)CC1CCC1C2CCC2(C)C(C3=CC(=O)OC3)CCC12O (stereo unspecified) | 1.17 µM
CN(C[C@H]1N[C@@H](CO)[C@@H]1c1ccc(C2=CCCC2)cc1)C(=O)c1cccc(F)c1 | 3.82 µM
C=C1C(=O)OC2C1CCC(C)C1C=CC(=O)C12C (stereo unspecified) | 13.8 µM
COc1ccccc1-c1ccc(OCCCN2CCC(C(O)(c3ccccc3)c3ccccc3)CC2)cc1 | 13.7 µM

Compound | AC35
CCCCc1c(-c2ccccc2OC)ncn1Cc1ccc(C(C)(C)C)cc1 | 13.1 µM
Cc1ccc(S(=O)(=O)N(C)C[C@@H]2Oc3ccc(NC(=O)CCCCCC(=O)Nc4ccccc4N)cc3CC(=O)N([C@@H](C)CO)C[C@@H]2C)cc1 | > 21 µM (inactive)
C[C@@H]1CN([C@H](C)CO)C(=O)c2cccc(N(C)C)c2O[C@@H]1CN(C)Cc1ccc(C(=O)Nc2ccccc2N)cc1 | 16.4 µM
O=C(NCc1ccc(F)cc1)N1[C@H]2CC[C@@H]1C=C(c1ccc(F)cc1OCc1ccccc1)C2 | 13.9 µM
Nc1nc2cc3c(cc2cc1C(=O)NCCc1c[nH]c2ccccc12)OCO3 | 13.7 µM
COc1ccc(C2=Nn3c(nnc3-c3ccccc3F)SC2)cc1OC1CCOC1 (stereo unspecified) | 4.93 µM
C[C@@H]1CN([C@H](C)CO)C(=O)Cc2cc(N(C)C)ccc2O[C@H]1CN(C)Cc1ccc(C(=O)Nc2ccccc2N)cc1 | 13.6 µM
CC1OC(OC2CC(O)C3(CO)C4C(O)CC5(C)C(C6=CC(=O)OC6)CCC5(O)C4CCC3(O)C2)C(O)C(O)C1O (stereo unspecified) | 0.173 µM
O=C(Nc1cccc(S(=O)(=O)N2CCCC2)c1)c1ccc(Cl)nc1 | 14 µM
CCN(Cc1ccccc1)c1ccc(/C=N/N=C(N)N)cc1 | 15.2 µM
OCC1OC(n2ccc3c2ncn2ncnc32)C(O)C1O (stereo unspecified) | 3.83 µM
Cc1nn(Cc2ccccc2Cl)c2sc(C(=O)Nc3ccccc3N3CCOCC3)cc12 | 13.2 µM
COc1ccc(NC(=O)N2CCCCN3[C@H](CO)[C@H](c4ccc(C#CCC(C)C)cc4)[C@H]3C2)cc1 | 12.2 µM
CCN1/C(=C/C=C/c2oc3ccc(-c4ccccc4)cc3[n+]2CC)Oc2ccc(-c3ccccc3)cc21 | 2.39 µM
CN(C[C@H]1N[C@@H](CO)[C@@H]1c1ccc(C2=CCCC2)cc1)C(=O)c1ccc(F)cc1 | 3.92 µM
COc1ccc(S(=O)(=O)N2CCCc3nc(-c4ccc(F)cc4)ccc32)cc1 | 7.3 µM
CCOC(=O)[C@]12Cc3ccc(C)cc3[C@H]1N(C1CCCCC1)C(=O)c1ccccc12 | 12.1 µM
COc1cc2c(cc1OC)C(C)N(C(=O)c1cc(Cl)nc(Cl)c1)CC2 (stereo unspecified) | 11.9 µM
O=C1NC(=O)N(Cc2ccccc2)C(=O)/C1=C\C=C\c1ccco1 | 10.2 µM
Nc1nc(N)c(-c2cccc(C(F)(F)F)c2)c(Cc2cccc(C(F)(F)F)c2)n1 | 4.27 µM
C[C@@H]1CN([C@@H](C)CO)C(=O)c2cccc(NC(=O)Nc3cccc4ccccc34)c2O[C@@H]1CN(C)Cc1ccc(C(=O)Nc2ccccc2N)cc1 | 10.8 µM
CN(Cc1cnc2nc(N)nc(N)c2n1)c1ccc(C(=O)N[C@@H](CCC(=O)O)C(=O)O)cc1 | 0.0194 µM and 0.0201 µM

Compound | AC35
CN(C)c1ccc(C=c2c3ccccc3n3c2c2c([n+]3C)CCCC2)cc1 | 3.96 µM
O=C(O)c1ccc(N/N=C/c2ccc3nccnc3c2)cc1 | 16.3 µM
O=C(c1cccc(S(=O)(=O)NCc2ccccc2)c1)N1CCN(c2ccccc2)CC1 | 17.6 µM
CCOc1ccc2nc(NC3=NC(c4ccc(OC)cc4)CC(=O)N3)nc(C)c2c1 (stereo unspecified) | 20.9 µM
CCCNC(=O)N1[C@H](C#N)[C@H](c2ccc(C#Cc3cccc(F)c3)cc2)[C@H]1CO | 16.1 µM
Nc1ncn([C@@H]2O[C@H](CO)[C@@H](O)[C@H]2O)c(=O)n1 | 11.7 µM
Cc1ccc(N2C(=O)c3cccc4c(N)ccc(c34)C2=O)c2cccnc12 | 0.0977 µM
CN(c1ccc(NC(=O)CCc2c[nH]c3ccccc23)cc1)c1ccccn1 | 8.74 µM
COc1ccc(C(CCNCc2ccc(OC(C)C)cc2)C(C)C)cc1 (stereo unspecified) | 21.8 µM
C[C@@H]1CN([C@@H](C)CO)C(=O)c2cc(NS(=O)(=O)c3ccc(Cl)cc3)ccc2O[C@@H]1CN(C)Cc1ccc(C(=O)Nc2ccccc2N)cc1 | 12.7 µM
COc1ccc(/C=C/C(=O)c2cc(F)ccc2OC(=O)c2ccccc2OC)cc1OC | 1.59 µM
CN(C)c1ncnc2c1ccn2C1OC(CO)C(O)C1O (stereo unspecified) | 7.06 µM
C[C@H](CO)N1C[C@H](C)[C@H](CN(C)Cc2ccc(C(=O)Nc3ccccc3N)cc2)Oc2ccc(NS(=O)(=O)c3cccs3)cc2C1=O | 8.61 µM
CC1=NN(c2ccc(C)cc2)C(=O)/C1=C\C=C\c1ccccc1 | 18.8 µM
COC(=O)c1ccccc1-c1c2ccc(=N)cc-2oc2cc(N)ccc12 | 8.14 µM
C(=N\Nc1nc2ccccc2s1)/c1ccccn1 | 3.07 µM
C[C@H]1CN([C@@H](C)CO)C(=O)c2cc(NS(=O)(=O)c3ccc(Cl)cc3)ccc2O[C@H]1CN(C)Cc1ccc(Cl)c(Cl)c1 | 20.3 µM
C[C@H]1CCCCO[C@H](CN(C)Cc2ccc(C(F)(F)F)cc2)[C@@H](C)CN([C@@H](C)CO)C(=O)c2cc(NC(=O)Nc3ccccc3)ccc2O1 | 12.4 µM
CC(C)N1C/C(=C/c2cccnc2)C(=O)/C(=C/c2cccnc2)C1 | 22.6 µM
COc1ccc(NC(=S)N=Nc2c(O)[nH]c3ccccc23)cc1 | 20.1 µM
O=C1NC(=O)N(Cc2ccco2)C(=O)/C1=C/C=C/c1ccco1 | 12.5 µM
COc1ccc(C2=NNC(=Nc3cc(S(=O)(=O)N(C)C)ccc3C)SC2)c(OC)c1 | 11.9 µM
